Data from US5053070A, “Pyrimidine derivatives, preparation processes thereof, herbicide containing the same, and herbicidal compositions containing the same along with other active ingredient” (Mitsui Toatsu Chemicals, Incorporated, priority 1988, dated 1991).
Converted amounts (≈) assume the structure as drawn.

Assays:
Format in all cases: in vivo
redroot pigweed [1] = assay: Upland foliar application test by mixed formulations (Test 7); conditions: Amaranthus retroflexus, 720 h, applied alone, 30th day, read-out: Herbicidal effects (%) Redrood pigweed Ea; for pest or weed control at 1000 g/ha: 1 kg/ha; for pest or weed control at 300 g/ha: 0.3 kg/ha
In short: (§1)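 Foliar spray of two-compound mixed emulsion, diluted with water, at 5 l per are via ULV sprayer onto weeds at 2–3 leaf stage in upland soil pots, greenhouse. Effect observed 30 days after spraying. Measured mixture activity (Ea) compared with Colby expected value (Ec) derived from single-ingredient growth inhibition rates.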

morningglories = assay: as above; conditions: Ipomoea, 720 h, applied alone, 30th day, read-out: Herbicidal effects (%) Morningglory Ea; for pest or weed control at 1000 g/ha: 1 kg/ha; for pest or weed control at 300 g/ha: 0.3 kg/ha
In short: as §1

green foxtail [2] = assay: as above; conditions: Setaria viridis, 720 h, applied alone, 30th day, read-out: Herbicidal effects (%) Green foxtail Ea; for pest or weed control at 1000 g/ha: 1 kg/ha; for pest or weed control at 300 g/ha: 0.3 kg/ha
In short: as §1

johnsongrass [3] = assay: as above; conditions: Sorghum halepense, 720 h, applied alone, 30th day, read-out: Herbicidal effects (%) Johnsongrass Ea; for pest or weed control at 1000 g/ha: 1 kg/ha; for pest or weed control at 300 g/ha: 0.3 kg/ha
In short: as §1

barnyardgrass [4] = assay: as above; conditions: Echinochloa crus-galli, 720 h, applied alone, 30th day, read-out: Herbicidal effects (%) Barnyardgrass Ea; for pest or weed control at 1000 g/ha: 1 kg/ha; for pest or weed control at 300 g/ha: 0.3 kg/ha
In short: as §1

Sagittaria pygmaea = assay: Treatment of soil under submerged condition, pre-emergence (Test 4); conditions: 30 g ai/a granule, 30 days later
In short: (§2)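 Under submerged conditions, pots carrying weed propagules and transplanted young rice (2–3 leaves) were given a granulated test composition one day after planting, ahead of weed emergence. Plants grew in a greenhouse, with weed emergence and crop injury read 30 days after treatment.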

bulrush = assay: as above; conditions: 30 g ai/a granule, 30 days later
In short: as §2

barnyardgrass [5] = assay: as above; conditions: 30 g ai/a granule, 30 days later
In short: as §2

narrowleaf waterplantain = assay: Petri dish test (Test 6); conditions: 336 h; seeds on filter paper, 25° C., 14 days; read-out: I80 (ppm)
In short: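 Narrowleaf waterplantain seeds placed on filter paper pre-treated with compound in acetone (solvent air-dried) in 9 cm Petri dishes with 10 ml water, grown at 25° C in light. Growth was scored after fourteen days as degree of damage against an untreated group.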

cotton = assay: Upland soil application test (Test 2), crop injury; conditions: 30 g ai/a, soil spray before emergence, 30 days later
In short: (§3)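 Damage was graded 30 days after treatment by comparing air-dried plant weight with that of plants in untreated pots. Test compound, given as a diluted wettable powder, had been sprayed on the soil surface one day after sowing, before any weeds emerged.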

peanut = assay: Upland soil application test (Test 2), crop injury; conditions: 30 g ai/a, soil spray before emergence, 30 days later
In short: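 Soil-surface application of water-diluted wettable powder at 10 l per are, made one day after seeding and ahead of weed emergence. Plants stayed in the greenhouse for 30 days; injury was rated by air-dried weight versus untreated pots.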

soybean = assay: Upland soil application test (Test 2), crop injury; conditions: 30 g ai/a, soil spray before emergence, 30 days later
In short: as §3

redroot pigweed [6] = assay: Upland soil application test (Test 2); conditions: 30 g ai/a, soil spray before emergence, 30 days later
In short: (§4)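 Pre-emergence test in upland soil pots with weed seeds mixed into the soil; one day after seeding, wettable-powder formulation diluted in water and sprayed onto the soil surface at 10 l per are. Damage scored 30 days later from air-dried weight relative to untreated pots.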

green foxtail [7] = assay: Upland soil application test (Test 2); conditions: 30 g ai/a, soil spray before emergence, 30 days later
In short: as §4

foxtail meadow = assay: Upland soil application test (Test 2); conditions: 30 g ai/a, soil spray before emergence, 30 days later
In short: as §4

common lambsquarters = assay: Upland soil application test (Test 2); conditions: 30 g ai/a, soil spray before emergence, 30 days later
In short: as §4

johnsongrass [8] = assay: Upland soil application test (Test 2); conditions: 30 g ai/a, soil spray before emergence, 30 days later
In short: as §4

large crabgrass = assay: Upland soil application test (Test 2); conditions: 30 g ai/a, soil spray before emergence, 30 days later
In short: as §4

barnyardgrass [9] = assay: Upland soil application test (Test 2); conditions: 30 g ai/a, soil spray before emergence, 30 days later
In short: as §4

Row | Structure (SMILES) | pest or weed control at 1000 g/ha (redroot pigweed [1]) [%] | Herbicidal effects Sagittaria Pygmaea (Sagittaria pygmaea) | Herbicidal effects Bulrush (bulrush) | Herbicidal effects Barnyardgrass (barnyardgrass [5]) | IC80 (narrowleaf waterplantain) [µg/mL] | Injury Cotton (cotton) | Injury Peanut (peanut) | Injury Soybean (soybean) | Herbicidal effects Redroot pigweed (redroot pigweed [6]) | Herbicidal effects Green foxtail (green foxtail [7]) | Herbicidal effects Foxtail meadow (foxtail meadow) | Herbicidal effects Common lambsquarters (common lambsquarters) | Herbicidal effects Johnsongrass (johnsongrass [8]) | Herbicidal effects Large crabgrass (large crabgrass) | Herbicidal effects Barnyardgrass (barnyardgrass [9]) | pest or weed control at 300 g/ha (redroot pigweed [1]) [%] | pest or weed control at 300 g/ha (morningglories) [%] | pest or weed control at 300 g/ha (green foxtail [2]) [%] | pest or weed control at 300 g/ha (johnsongrass [3]) [%] | pest or weed control at 300 g/ha (barnyardgrass [4]) [%] | other results
1 | COc1cc(OC)nc(Oc2ccccc2C=NOCC=Cc2ccccc2C(F)(F)F)n1 [compound 32] | 50 | 5 (0-5 (Death)) | 4 (6-10 (Severe damages)) | 5 (0-5 (Death)) | 4 (≈ 8.71 µM) | 0 (91-100 (No damages)) | 0 (91-100 (No damages)) | 0 (91-100 (No damages)) | 5 (0-5 (Death)) | 5 (0-5 (Death)) | 5 (0-5 (Death)) | 4 (6-10 (Severe damages)) | 5 (0-5 (Death)) | 5 (0-5 (Death)) | 5 (0-5 (Death)) |  |  |  |  |  | pest or weed control at 1000 g/ha (morningglories): 0%; pest or weed control at 1000 g/ha (green foxtail [2]): 30%; pest or weed control at 1000 g/ha (johnsongrass [3]): 30%; pest or weed control at 1000 g/ha (barnyardgrass [4]): 50%
2 | COc1cccc(C=CCON=Cc2ccccc2Oc2nc(OC)cc(OC)n2)c1 [compound 38] |  | 5 (0-5 (Death)) | 4 (6-10 (Severe damages)) | 4 (6-10 (Severe damages)) | 2 (≈ 4.75 µM) | 0 (91-100 (No damages)) | 0 (91-100 (No damages)) | 0 (91-100 (No damages)) | 4 (6-10 (Severe damages)) | 5 (0-5 (Death)) | 4 (6-10 (Severe damages)) | 4 (6-10 (Severe damages)) | 5 (0-5 (Death)) | 5 (0-5 (Death)) | 5 (0-5 (Death)) | 50 | 10 | 40 | 40 | 50 | 
3 | COc1cc(OC)nc(Oc2ccccc2C=NOC(C)C)n1 [compound 6] | 50 | 4 (6-10 (Severe damages)) | 4 (6-10 (Severe damages)) | 4 (6-10 (Severe damages)) | 40 (≈ 126 µM) | 0 (91-100 (No damages)) | 0 (91-100 (No damages)) | 0 (91-100 (No damages)) | 3 (11-40 (Medium damages)) | 5 (0-5 (Death)) | 5 (0-5 (Death)) | 4 (6-10 (Severe damages)) | 5 (0-5 (Death)) | 4 (6-10 (Severe damages)) | 4 (6-10 (Severe damages)) |  |  |  |  |  | pest or weed control at 1000 g/ha (morningglories): 0%; pest or weed control at 1000 g/ha (green foxtail [2]): 30%; pest or weed control at 1000 g/ha (johnsongrass [3]): 30%; pest or weed control at 1000 g/ha (barnyardgrass [4]): 50%
4 | COc1cc(OC)nc(Oc2ccccc2C=NOCC=Cc2cccc(C)c2)n1 [Compound No. 34, 0-(3-methylcinnamyl)-2-(4,6-dimethoxy-2-pyrimidinyloxy)benzaldoxime] |  | 5 (0-5 (Death)) | 4 (6-10 (Severe damages)) | 4 (6-10 (Severe damages)) | 2 (≈ 4.93 µM) | 0 (91-100 (No damages)) | 0 (91-100 (No damages)) | 0 (91-100 (No damages)) | 4 (6-10 (Severe damages)) | 5 (0-5 (Death)) | 5 (0-5 (Death)) | 4 (6-10 (Severe damages)) | 5 (0-5 (Death)) | 4 (6-10 (Severe damages)) | 5 (0-5 (Death)) | 30 | 0 | 30 | 30 | 30 | 
5 | C=C(Cl)CON=Cc1ccccc1Oc1nc(OC)cc(OC)n1 [Compound No. 14] |  | 5 (0-5 (Death)) | 3 (11-40 (Medium damages)) | 5 (0-5 (Death)) | 100 (≈ 286 µM) | 0 (91-100 (No damages)) | 0 (91-100 (No damages)) | 0 (91-100 (No damages)) | 4 (6-10 (Severe damages)) | 5 (0-5 (Death)) | 5 (0-5 (Death)) | 4 (6-10 (Severe damages)) | 5 (0-5 (Death)) | 5 (0-5 (Death)) | 5 (0-5 (Death)) | 85 | 0 | 30 | 30 | 85 | 
6 | COc1cc(OC)nc(Oc2ccccc2C=NO)n1 [Compound No. 24, 2-(4,6-dimethoxy-2-pyrimidinyloxy)-benzaloxime] |  | 4 (6-10 (Severe damages)) | 2 (41-70 (Small damages)) | 3 (11-40 (Medium damages)) | 100 (≈ 363 µM) | 0 (91-100 (No damages)) | 0 (91-100 (No damages)) | 0 (91-100 (No damages)) | 4 (6-10 (Severe damages)) | 5 (0-5 (Death)) | 5 (0-5 (Death)) | 4 (6-10 (Severe damages)) | 5 (0-5 (Death)) | 4 (6-10 (Severe damages)) | 4 (6-10 (Severe damages)) | 50 | 0 | 20 | 20 | 50 | 
